The assay concerns peripheral blood mononuclear cells. In words: T-cell promiscuity in unimmunized humans: PBMC proliferation with lipopeptide (3H-thymidine incorporation). The format is cell-based, human. The settings on record: PBMC 3×10^5/well, 5-6 days with lipopeptide, responder = ≧2 S.I. (cpm with antigen/cpm media only).

As for Tetanus toxoid, the Responder/Total is reported as 10/21.

Values taken from patent publication US20020018806A1, “Lipopeptide adjuvants” (priority 2000, published 2002).
